The values below come from patent publication US6495557B1, “Condensed thienopyrimidines with phosphodiesterase-v inhibiting action” (Merck Patent Gesellschaft mit beschraenkter Haftung, priority 1998, dated 2002).

Molecules are shown by their SMILES.

The compound `COc1ccc(CNc2nc(CCC(=O)O)nc3sc4ccccc4c23)cc1Cl` [Example 2, 3-[4-(3-chloro-4-methoxybenzylamino)benzothieno[2,3-d]pyrimidin-2-yl]propionic acid] yielded a melting point of 218 °C.

In the case of `COC(=O)c1ccc(-c2nc(NCc3ccc(OC)c(Cl)c3)c3c(n2)sc2ccccc23)cc1` [Example 3, methyl 4-[4-(3-chloro-4-methoxybenzylamino)-[1]benzothieno[2,3-d]pyrimidin-2-yl]benzoate], the melting point was 203 to 204 °C.
